From patent US9232799B2, “N-[(het)arylethyl)] pyrazole(thio)carboxamides and their heterosubstituted analogues” (BAYER INTELLECTUAL PROPERTY GMBH, priority 2010, dated 2016) come the findings set out here.

The test system of one data set is Pyrenophora teres. Description: In vivo preventive test on Pyrenophora teres (barley). As to conditions: 500 ppm of active ingredient, evaluated 7-9 days after inoculation. An excerpt:
One day after this treatment, the plants are inoculated with an aqueous spore suspension of Pyrenophora teres.

Another data set concerns Venturia inaequalis. In words: In vivo preventive test on Venturia inaequalis (apple scab). The note with it: 100 ppm of active ingredient, evaluated 10 days after inoculation.
For another data set, the system named is Septoria tritici. In words: In vivo preventive test on Septoria tritici (wheat). As to conditions: 500 ppm of active ingredient, evaluated 21 days after inoculation. The source says:
(§1) To test for preventive activity, young plants are sprayed with the preparation of active compound or active compound combination at the stated rate of application.

The test system of data set [1] is Blumeria graminis f.sp. hordei. In words: In vivo preventive test on Blumeria graminis (barley). The note with it: 500 ppm of active ingredient, evaluated 7 days after inoculation.
Text: as §1

The test system of the next data set is Sphaerotheca fuliginea. Description: In vivo preventive test on Sphaerotheca fuliginea (cucumber). As to conditions: 500 ppm of active ingredient, evaluated 7 days after inoculation. An excerpt: One day after this treatment, the plants are inoculated with an aqueous spore suspension of Sphaerotheca fuliginea.
Another data set relates to Botrytis cinerea. Description: In vivo preventive test on Botrytis cinerea (beans). The note with it: preventive, beans, lesion size 2 days after inoculation. An excerpt:
To test for preventive activity, young plants are sprayed with the preparation of active compound. After the spray coating has dried on, 2 small pieces of agar covered with growth of Botrytis cinerea are placed on each leaf.

The test system of another data set is Fusarium graminearum. In words: microbe, parasite or virus in culture. It is filed as cell-based.
Data set [2] can be described thus: logP by HPLC on reversed-phase column (C 18), EEC Directive 79/831 Annex V.A8. It is filed as physicochemical. On the procedure:
In table 1, the logP values were determined in accordance with EEC Directive 79/831 Annex V.A8 by HPLC (High Performance Liquid Chromatography) on a reversed-phase column (C 18), using the method described below: Temperature: 40° C.; […]

Data set [3] relates to Fusarium nivale (var. majus). In words: In vivo preventive test on Fusarium nivale (wheat). The note with it: 500 ppm of active ingredient, evaluated 5 days after inoculation.
Text: as §1

In a further data set the test system is Alternaria solani. In words: In vivo preventive test on Alternaria solani (tomato). The note with it: 500 ppm of active ingredient, evaluated 7 days after inoculation. An excerpt:
One day after this treatment, the plants are inoculated with an aqueous spore suspension of Alternaria solani.

The test system of the next data set is aflatoxines production. Description: microbe, parasite or virus in culture. It is filed as cell-based, Aspergillus parasiticus.
The subject of another data set is Uromyces appendiculatus. In words: In vivo preventive test on Uromyces appendiculatus (beans). As to conditions: 100 ppm of active ingredient, evaluated 10 days after inoculation.
The next data set has as its system Leptosphaeria nodorum. In words: In vivo preventive test on Leptosphaeria nodorum (wheat). As to conditions: 500 ppm of active ingredient, evaluated 7-9 days after inoculation. An excerpt:
One day after this treatment, the plants are inoculated with an aqueous spore suspension of Leptosphaeria nodorum.

The test system of the next data set is Puccinia triticina. In words: In vivo preventive test on Puccinia triticina (wheat). As to conditions: dose 500 ppm of active ingredient, evaluated 8 days after inoculation.

As a reminder, the inhibition is the drop in the measured response relative to a control, in per cent. Usually chromatographic logP stands for lipophilicity estimated from chromatographic retention. Higher therefore signals higher lipophilicity. In the case of `CC(Cc1ncc(C(F)(F)F)cc1Cl)NC(=O)c1c(C(F)F)nn(C)c1F` (centres unmarked) [Example 190, N-{1-[3-chloro-5-(trifluoromethyl)pyridin-2-yl]propan-2-yl}-3-(difluoromethyl)-5-fluoro-1-methyl-1H-pyrazole-4-carboxamide], the Efficacy with Pyrenophora teres was 100%; in the data set on Venturia inaequalis, 100%; in the data set with Septoria tritici, 100%; in data set [1], 100%; in the data set on Sphaerotheca fuliginea it was 100%; in [3], 88%. The compound further gave an Efficacy in the data set with Alternaria solani of 100%. The pest or weed control at 100 ppm with Botrytis cinerea (Botrytis cinerea, 48 h, 100 ppm of active ingredient, read-out: Efficacy) came to 96%. The pest or weed control at 500 ppm with Botrytis cinerea (Botrytis cinerea, 48 h, 500 ppm of active ingredient, read-out: Efficacy) amounted to 100%. Besides, the inhibition at 50 µM stood at 100% in the data set on Fusarium graminearum (Fusarium graminearum, 168 h, read-out: % Inhibition of fungal growth at 50 μM) and 100% with aflatoxines production (Aspergillus parasiticus, 168 h, read-out: % Inhibition of Aflatoxin at 50 μM). The compound further yielded a chromatographic logP in [2] (logP) of 3.08.
One may read the logP as a log measure of how a compound divides between an organic and an aqueous phase. High values mean a more lipophilic compound, low ones a more hydrophilic compound. As for `Cn1nc(C(F)F)c(C(=O)NCCc2ccc(Cl)cc2Cl)c1F` [Example 65], the Efficacy in the data set on Pyrenophora teres was 100%; in the data set with Venturia inaequalis, 100%; in the data set with Septoria tritici it was 100%; in [1], 95%; with Sphaerotheca fuliginea it was 79%; with Uromyces appendiculatus it was 100%. The compound also showed an Efficacy in the data set with Alternaria solani of 90%. Also, in the data set on Fusarium graminearum, the “% Inhibition of fungal growth at 50 μM” value was found to be 100%. In addition, the log partition coefficient (logP) in data set [2] was 3.09. In the data set with aflatoxines production, the “% Inhibition of Aflatoxin at 50 μM” value was found to be 100%.
As to `CC(Cc1ccc(Cl)cc1)N(C(=O)c1c(C(F)F)nn(C)c1F)C1CC1` (centres unmarked) [Example 55], the Efficacy (in the data set with Pyrenophora teres; with Venturia inaequalis; with Septoria tritici; in data set [1]; in the data set on Sphaerotheca fuliginea; with Botrytis cinerea (100 ppm of active ingredient)) was 100% in each case. For the same compound, the Efficacy in [3] turned out to be 100%; in the data set on Uromyces appendiculatus it was 96%; with Alternaria solani, 95%; in the data set with Leptosphaeria nodorum it was 95%. For the same compound, in the data set with Fusarium graminearum, the “% Inhibition of fungal growth at 50 μM” value was found to be 100%. The logP in [2] is given as 3.73. In addition, in the data set with aflatoxines production, the “% Inhibition of Aflatoxin at 50 μM” value came out at 100%.
As to `CC(Cc1c(Cl)cccc1Cl)N(C(=O)c1c(C(F)F)nn(C)c1F)C1CC1` (centres unmarked) [Example 115], the Efficacy with Pyrenophora teres is recorded as 100%; with Venturia inaequalis, 100%; in data set [1], 100%; with Sphaerotheca fuliginea, 100%; in the data set on Botrytis cinerea (100 ppm of active ingredient), 93%; in [3], 100%. In addition, the Efficacy in the data set with Uromyces appendiculatus was found to be 98%; in the data set on Puccinia triticina, 90%; with Alternaria solani, 100%; with Leptosphaeria nodorum, 95%. In the data set with Fusarium graminearum, the “% Inhibition of fungal growth at 50 μM” value was determined as 100%. Further, the logP in [2] was found to be 4.06. In addition, the “% Inhibition of Aflatoxin at 50 μM” value in the data set with aflatoxines production is listed as 100%.
With `Cn1nc(C(F)F)c(C(=O)NC(C)(C)C(=O)c2ccc3ccccc3c2)c1F` [Example 160], the Efficacy was determined as 100% in the data set on Pyrenophora teres; 100% in the data set with Venturia inaequalis; 70% in the data set on Septoria tritici; 70% in data set [1]; 95% with Sphaerotheca fuliginea; 100% in the data set on Botrytis cinerea (100 ppm of active ingredient). The values for the Efficacy (in data set [3]; with Alternaria solani; in the data set with Leptosphaeria nodorum) were 83%, 95% and 70%, respectively. In addition, the “% Inhibition of fungal growth at 50 μM” value in the data set with Fusarium graminearum is 100%. This compound registered a logP in data set [2] of 2.92. Further, in the data set with aflatoxines production, the “% Inhibition of Aflatoxin at 50 μM” value amounted to 100%.
For the compound `Cn1nc(C(F)F)c(C(=O)NCCc2ccc(Cl)cc2Cl)c1Cl` [Example 66], the Efficacy in the data set with Venturia inaequalis was 100%; in the data set with Septoria tritici, 71%; in data set [1], 90%; in data set [3], 100%; in the data set on Uromyces appendiculatus, 98%. In the data set with Fusarium graminearum, the “% Inhibition of fungal growth at 50 μM” value was 100%. In [2], this compound showed a lipophilicity (logP) of 3.31. In addition, the “% Inhibition of Aflatoxin at 50 μM” value in the data set on aflatoxines production was found to be 100%.
Take `Cn1nc(C(F)F)c(C(=O)N(C2CC2)C2CCCC2c2ccccc2Cl)c1F` (centres unmarked) [Example 210]: the Efficacy (with Pyrenophora teres; with Venturia inaequalis; in the data set with Septoria tritici; in [1]; with Sphaerotheca fuliginea; with Botrytis cinerea (100 ppm of active ingredient)) was 100% throughout. Besides, the Efficacy in [3] is on record as 86%; in the data set with Alternaria solani, 100%; in the data set on Leptosphaeria nodorum, 90%. Also, the “% Inhibition of fungal growth at 50 μM” value with Fusarium graminearum is 100%. In data set [2], this compound yielded a logP of 4.31. The “% Inhibition of Aflatoxin at 50 μM” value in the data set with aflatoxines production amounted to 100%.
As for `CC(Cc1c(F)cccc1Cl)N(C(=O)c1c(C(F)F)nn(C)c1F)C1CC1` (centres unmarked) [Example 120], the Efficacy is on record as 100% in the data set on Pyrenophora teres; 100% in the data set with Venturia inaequalis; 100% with Septoria tritici; 94% in [1]; 100% in the data set on Sphaerotheca fuliginea; 94% in the data set with Botrytis cinerea (100 ppm of active ingredient). The Efficacy in data set [3] was determined as 100%; with Uromyces appendiculatus, 100%; in the data set on Puccinia triticina it was 70%; with Alternaria solani, 100%; with Leptosphaeria nodorum it was 100%. Also, in the data set with Fusarium graminearum, the “% Inhibition of fungal growth at 50 μM” value is on record as 100%. Moreover, in data set [2], the logP is given as 3.76. Further, the “% Inhibition of Aflatoxin at 50 μM” value in the data set with aflatoxines production came to 100%.
`Cn1nc(C(F)F)c(C(=O)N(CC(F)(F)c2ccccc2Cl)C2CC2)c1F` [Example 44]: the Efficacy with Pyrenophora teres was found to be 100%; in the data set on Venturia inaequalis it was 100%; with Septoria tritici it was 100%; in data set [1], 100%; in the data set on Sphaerotheca fuliginea, 100%; in the data set with Botrytis cinerea (100 ppm of active ingredient), 99%. The Efficacy (in data set [3]; with Alternaria solani; in the data set on Leptosphaeria nodorum) was 100% in each case. In addition, the “% Inhibition of fungal growth at 50 μM” value with Fusarium graminearum is reported as 100%. Also, in data set [2], the logP is given as 3.39. In addition, the “% Inhibition of Aflatoxin at 50 μM” value in the data set with aflatoxines production is reported as 100%.
Regarding `Cn1nc(C(F)F)c(C(=O)N(CC(F)(F)c2ccc(Cl)cc2Cl)C2CC2)c1F` [Example 86], the Efficacy in the data set on Pyrenophora teres is 100%; in the data set on Venturia inaequalis it was 100%; in the data set with Septoria tritici, 80%; in data set [1], 100%; in the data set on Sphaerotheca fuliginea, 100%; with Botrytis cinerea (100 ppm of active ingredient), 100%. In addition, the Efficacy is given as 93% in data set [3], 100% in the data set on Alternaria solani and 100% in the data set on Leptosphaeria nodorum. Moreover, the “% Inhibition of fungal growth at 50 μM” value in the data set with Fusarium graminearum is 98%. Besides, the logP in data set [2] was determined as 3.94. The “% Inhibition of Aflatoxin at 50 μM” value with aflatoxines production was 100%.
For `COC(CN(C(=O)c1c(C(F)F)nn(C)c1F)C1CC1)c1ccc(Cl)cc1Cl` (centres unmarked) [Example 80], the Efficacy came out at 100% with Pyrenophora teres; 100% in the data set with Venturia inaequalis; 100% with Sphaerotheca fuliginea; 100% in the data set on Botrytis cinerea (100 ppm of active ingredient); 80% with Uromyces appendiculatus; 80% in the data set with Puccinia triticina. Also, the Efficacy in the data set on Alternaria solani was found to be 95%; in the data set on Leptosphaeria nodorum, 100%. The “% Inhibition of fungal growth at 50 μM” value in the data set with Fusarium graminearum turned out to be 100%. The “% Inhibition of Aflatoxin at 50 μM” value in the data set on aflatoxines production was 100%.
On to `Cc1cc(Br)ccc1C(=O)C(C)(C)NC(=O)c1c(C(F)F)nn(C)c1F` [Example 133], for which the Efficacy with Pyrenophora teres is 100%; with Venturia inaequalis, 100%; with Septoria tritici it was 80%; in data set [1], 100%; in the data set on Sphaerotheca fuliginea, 100%; in the data set on Botrytis cinerea (100 ppm of active ingredient), 100%. For the same compound, the results for the Efficacy (in [3]; in the data set with Alternaria solani; in the data set on Leptosphaeria nodorum) were 100%, 95% and 100%, respectively. For the same compound, in the data set on Fusarium graminearum, the “% Inhibition of fungal growth at 50 μM” value is 100%. The compound further showed a logP in data set [2] of 3.37. Besides, the “% Inhibition of Aflatoxin at 50 μM” value with aflatoxines production was found to be 100%.
On to `Cn1nc(C(F)F)c(C(=O)NC2CC2c2ccc(Cl)cc2)c1F` (centres unmarked) [Example 224], for which the Efficacy in the data set on Pyrenophora teres was found to be 100%; with Venturia inaequalis, 100%; in the data set with Sphaerotheca fuliginea it was 84%; with Uromyces appendiculatus, 100%; in the data set on Alternaria solani, 95%; in the data set with Leptosphaeria nodorum it was 80%. Besides, in the data set on Fusarium graminearum, the “% Inhibition of fungal growth at 50 μM” value was 100%. Besides, in data set [2], the logP is reported as 2.61. Besides, the “% Inhibition of Aflatoxin at 50 μM” value in the data set with aflatoxines production turned out to be 100%.
